Data reported in PubChem BioAssay AID248 (DTP/NCI, 2004).
Toxic doses and inconclusive results are not listed. Rule as the data show it: active = T/C of 150% or more; inactive = T/C below 125%.

System: L1210 leukemia ip in BDF1 mice, survival T/C
Experiment: NCI In Vivo Anticancer Drug Screen. Data for tumor model L1210 Leukemia (intraperitoneal) in B6D2F1 (BDF1) mice
Details: endpoint: mean survival time, higher = longer survival
In short: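 Antitumor effect is assessed in tumor-bearing animals. Survival in the compound arm is compared with a vehicle-dosed control arm and expressed as their quotient.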

[1] = dose: 100.0 mg/kg/injection, schedule: Q04DX003 (ip), vehicle: saline
[2] = dose: 100.0 mg/kg/injection, schedule: Q01DX001 (ip), vehicle: saline
[3] = dose: 200.0 mg/kg/injection, schedule: Q01DX001 (ip), vehicle: saline
[4] = dose: 200.0 mg/kg/injection, schedule: Q04DX003 (ip), vehicle: saline
[5] = dose: 400.0 mg/kg/injection, schedule: Q01DX001 (ip), vehicle: saline
[6] = dose: 400.0 mg/kg/injection, schedule: Q04DX003 (ip), vehicle: saline
[7] = dose: 100.0 mg/kg/injection, schedule: Q01DX001 (ip), vehicle: saline with Tween-80
[8] = dose: 200.0 mg/kg/injection, schedule: Q01DX001 (ip), vehicle: saline with Tween-80
[9] = dose: 400.0 mg/kg/injection, schedule: Q01DX001 (ip), vehicle: saline with Tween-80
[10] = dose: 100.0 mg/kg/injection, schedule: Q01DX009 (ip), vehicle: Klucel (hydroxypropylcellulose) (HPC)
[11] = dose: 100.0 mg/kg/injection, schedule: Q04DX003 (ip), vehicle: Klucel (hydroxypropylcellulose) (HPC)
[12] = dose: 200.0 mg/kg/injection, schedule: Q04DX003 (ip), vehicle: Klucel (hydroxypropylcellulose) (HPC)

Measured: T/C

[Br][V]([Br])[Br]
inactive: dose: 12.0 mg/kg/injection, schedule: Q01DX009 (ip), vehicle: saline 97 % of control | dose: 25.0 mg/kg/injection, schedule: Q01DX009 (ip), vehicle: saline sonified 92 % of control | dose: 25.0 mg/kg/injection, schedule: Q01DX009 (ip), vehicle: saline 93 % of control | dose: 50.0 mg/kg/injection, schedule: Q01DX009 (ip), vehicle: saline 102 % of control | [1] 102 % of control

C=C=CC(C)(C)C
inactive: [2] 96 % of control | [3] 96 % of control | [4] 100 % of control | [5] 96 % of control | [6] 100 % of control

CCC[As](=O)(O)CCCc1ccccc1
inactive: dose: 0.78 mg/kg/injection, schedule: Q01DX009 (ip), vehicle: Klucel (hydroxypropylcellulose) (HPC) 100 % of control | dose: 1.56 mg/kg/injection, schedule: Q01DX009 (ip), vehicle: Klucel (hydroxypropylcellulose) (HPC) 87 % of control | dose: 3.13 mg/kg/injection, schedule: Q01DX009 (ip), vehicle: Klucel (hydroxypropylcellulose) (HPC) 101 % of control

CC(C)(C)C1CCC2OC(C)(C(C)(C)C)CC(C(C)(C)C)C2C1 (stereo unspecified)
inactive: [7] 100 % of control | [8] 100 % of control | [9] 95 % of control

Clc1ccc2c(c1)-c1ccccc1C1=NCCN12
inactive: dose: 5.0 mg/kg/injection, schedule: Q01DX009 (ip), vehicle: Klucel (hydroxypropylcellulose) (HPC) 95 % of control | dose: 10.0 mg/kg/injection, schedule: Q01DX009 (ip), vehicle: Klucel (hydroxypropylcellulose) (HPC) 101 % of control | dose: 10.0 mg/kg/injection, schedule: Q04DX003 (ip), vehicle: Klucel (hydroxypropylcellulose) (HPC) 101 % of control | dose: 20.0 mg/kg/injection, schedule: Q04DX003 (ip), vehicle: Klucel (hydroxypropylcellulose) (HPC) 110 % of control

CC[N+]1(CC)CCC(OC(=O)C(O)(c2ccccc2)c2ccccc2)C1 (stereo unspecified)
inactive: dose: 5.0 mg/kg/injection, schedule: Q01DX001 (ip), vehicle: saline 97 % of control | dose: 10.0 mg/kg/injection, schedule: Q01DX001 (ip), vehicle: saline 92 % of control | dose: 20.0 mg/kg/injection, schedule: Q01DX001 (ip), vehicle: saline 97 % of control | dose: 40.0 mg/kg/injection, schedule: Q01DX001 (ip), vehicle: saline 97 % of control | dose: 80.0 mg/kg/injection, schedule: Q01DX001 (ip), vehicle: saline 103 % of control

O=C(O)CCCCNC(=O)c1ccc([N+](=O)[O-])cc1
inactive: [7] 99 % of control | [8] 94 % of control | [9] 87 % of control

Cn1c(=S)[nH]c2cc(Cl)c(Cl)cc21
inactive: [1] 100 % of control | [4] 105 % of control | [6] 97 % of control

NC(=O)Cc1ccc(C(C2=C(O)c3ccccc3C(=O)C2=O)C2=C(O)c3ccccc3C(=O)C2=O)cc1
inactive: dose: 75.0 mg/kg/injection, schedule: Q01DX001 (ip), vehicle: saline 96 % of control | dose: 150.0 mg/kg/injection, schedule: Q01DX001 (ip), vehicle: saline 101 % of control | dose: 300.0 mg/kg/injection, schedule: Q01DX001 (ip), vehicle: saline 91 % of control

O=C(N/N=C/c1ccc(O)cc1O)c1cccc2ccccc12
inactive: [2] 92 % of control | [3] 100 % of control | [5] 92 % of control

O=c1nc2n(CCO)c3ccccc3nc-2c(=O)[nH]1
inactive: dose: 25.0 mg/kg/injection, schedule: Q04DX002 (ip), vehicle: saline 100 % of control | dose: 50.0 mg/kg/injection, schedule: Q04DX002 (ip), vehicle: saline 106 % of control | dose: 100.0 mg/kg/injection, schedule: Q04DX002 (ip), vehicle: saline 95 % of control

CC(CCc1ccc2sc3ccccc3c2c1)C(N)=O (stereo unspecified)
inactive: [2] 94 % of control | [3] 92 % of control | [5] 94 % of control

O=[N+]([O-])c1ccc2c(c1)N(CCCN1CCN(CCO)CC1)c1ccccc1S2
inactive: dose: 12.5 mg/kg/injection, schedule: Q04DX003 (ip), vehicle: saline 111 % of control | dose: 25.0 mg/kg/injection, schedule: Q04DX003 (ip), vehicle: saline 122 % of control

CCOC(=O)C1CN(Cc2ccccc2)CCC1=O (stereo unspecified)
inactive: [1] 103 % of control | [4] 106 % of control | [6] 100 % of control

O=C(O)CC(Br)C(=O)O (stereo unspecified)
inactive: [1] 98 % of control | [4] 102 % of control

O=C(O)CCC(=O)CCC(=O)O
inactive: dose: 100.0 mg/kg/injection, schedule: Q01DX009 (ip), vehicle: other 95 % of control | dose: 200.0 mg/kg/injection, schedule: Q01DX009 (ip), vehicle: other 106 % of control | dose: 400.0 mg/kg/injection, schedule: Q01DX009 (ip), vehicle: other 106 % of control

CCC1=CC2CC3(C(=O)OC)c4[nH]c5ccccc5c4CC[N+](Cc4ccccc4)(C2)C13 (stereo unspecified)
inactive: [2] 100 % of control

COc1c([N+](=O)[O-])cc(-c2ccccc2)cc1[N+](=O)[O-]
inactive: [1] 87 % of control | [4] 87 % of control | [6] 87 % of control

COc1ccc(S(=O)(=O)F)cc1C(=O)O
inactive: [7] 100 % of control | dose: 100.0 mg/kg/injection, schedule: Q01DX009 (ip), vehicle: saline with Tween-80 100 % of control | dose: 100.0 mg/kg/injection, schedule: Q04DX002 (ip), vehicle: saline with Tween-80 90 % of control | dose: 100.0 mg/kg/injection, schedule: Q04DX003 (ip), vehicle: saline with Tween-80 94 % of control | [8] 92 % of control | dose: 200.0 mg/kg/injection, schedule: Q01DX009 (ip), vehicle: saline with Tween-80 100 % of control | dose: 200.0 mg/kg/injection, schedule: Q04DX002 (ip), vehicle: saline with Tween-80 113 % of control | dose: 200.0 mg/kg/injection, schedule: Q04DX003 (ip), vehicle: saline with Tween-80 97 % of control | [9] 94 % of control | dose: 400.0 mg/kg/injection, schedule: Q04DX002 (ip), vehicle: saline with Tween-80 86 % of control | dose: 400.0 mg/kg/injection, schedule: Q04DX003 (ip), vehicle: saline with Tween-80 88 % of control

Cc1ccc(NC(=S)NN)cc1C
inactive: dose: 50.0 mg/kg/injection, schedule: Q01DX009 (ip), vehicle: Klucel (hydroxypropylcellulose) (HPC) 94 % of control | [10] 100 % of control | [11] 94 % of control | [12] 97 % of control

O=C(O)C1(C(=O)O)CC23CCC2(C1)CC(C(=O)O)(C(=O)O)C3 (stereo unspecified)
inactive: [1] 95 % of control | [4] 97 % of control | [6] 103 % of control

CN(C)c1cc(Br)c(C=O)cc1[N+](=O)[O-]
inactive: [10] 94 % of control | [11] 102 % of control | dose: 200.0 mg/kg/injection, schedule: Q01DX009 (ip), vehicle: Klucel (hydroxypropylcellulose) (HPC) 103 % of control | [12] 93 % of control | dose: 400.0 mg/kg/injection, schedule: Q01DX009 (ip), vehicle: Klucel (hydroxypropylcellulose) (HPC) 92 % of control | dose: 400.0 mg/kg/injection, schedule: Q04DX003 (ip), vehicle: Klucel (hydroxypropylcellulose) (HPC) 98 % of control
